{"source": "paper PMC8521408", "about": "(Journal of Antimicrobial Chemotherapy, 2021)", "key": {"[1]": {"conditions": "for Covariate effect, CRGT on CL: exponent of (CRGT/83) on CL"}, "[2]": {"conditions": "for Cumulative AUC: mean ± SD, SD"}, "[3]": {"experiment": "New-onset AKI during vancomycin treatment"}, "[4]": {"experiment": "Other clinical endpoints during ICU stay"}, "[5]": {"conditions": "final model estimate, scaled to 70 kg TBW, critically ill ICU patients"}, "[6]": {"conditions": "median of bootstrap of final model (1000 samples)"}}, "note": "Where two headings read alike, the source gives them in different places.", "data": [{"smiles": "CN[C@H](CC(C)C)C(=O)N[C@H]1C(=O)N[C@@H](CC(N)=O)C(=O)N[C@H]2C(=O)N[C@H]3C(=O)N[C@H](C(=O)N[C@H](C(=O)O)c4cc(O)cc(O)c4-c4cc3ccc4O)[C@H](O)c3ccc(c(Cl)c3)Oc3cc2cc(c3O[C@@H]2O[C@H](CO)[C@@H](O)[C@H](O)[C@H]2O[C@H]2C[C@](C)(N)[C@H](O)[C@H](C)O2)Oc2ccc(cc2Cl)[C@H]1O", "note": "[vancomycin]", "values": [{"measurement": "Covariate effect, CRGT on CL", "setting": "[1]; bootstrap median", "result": 0.63}, {"measurement": "Covariate effect, CRGT on CL", "setting": "[1]; final model estimate", "result": 0.65}, {"measurement": "V1, vancomycin central volume of distribution", "setting": "[1]; [5]", "result": 13.4, "unit": "L"}, {"measurement": "V2, vancomycin peripheral volume of distribution", "setting": "[1]; [5]", "result": 36.9, "unit": "L"}, {"measurement": "CL, vancomycin clearance", "setting": "[1]; [6]", "result": 1.83, "unit": "L/h"}, {"measurement": "V1, vancomycin central volume of distribution", "setting": "[1]; [6]", "result": 13.1, "unit": "L"}, {"measurement": "V2, vancomycin peripheral volume of distribution", "setting": "[1]; [6]", "result": 35.7, "unit": "L"}, {"measurement": "median AUC0–24", "setting": "[2]; CD group, fixed first dose 1000 mg (N = 39 courses)", "result": 401, "unit": "µg·h/mL"}, {"measurement": "percentage of courses achieving AUC0–24 ≥400 mg·h/L", "setting": "[2]; CD group, fixed first dose 1000 mg (N = 39 courses), assuming MIC = 1 mg/L", "result": 53.8, "unit": "%"}, {"measurement": "median AUC0–24", "setting": "[2]; LD group, 25 mg/kg loading dose (N = 50 courses)", "result": 602, "unit": "µg·h/mL"}, {"measurement": "Cumulative AUC", "setting": "[2]; all episodes included for model building (N = 104)", "result": "1937 ± 1448", "unit": "µg·h/mL"}, {"measurement": "percentage of courses with AUC0–24 > 600 mg·h/L", "setting": "[2]; courses with a loading dose, 26/50", "result": 52, "unit": "%"}, {"measurement": "Cumulative AUC", "setting": "[2]; episodes with 25 mg/kg loading dose, LD group (N = 50)", "result": "2027 ± 1543", "unit": "µg·h/mL"}, {"measurement": "Cumulative AUC", "setting": "[2]; episodes without loading dose, CD group, first dose 1000 mg (N = 39)", "result": "1849 ± 1359", "unit": "µg·h/mL"}, {"measurement": "incidence of new-onset AKI", "setting": "[3]; AUC0–24 < 400 mg·h/L, 4/27, all three groups", "result": 14.8, "unit": "%"}, {"measurement": "incidence of new-onset AKI", "setting": "[3]; AUC0–24 below 600 mg·h/L, 17/69", "result": 24.6, "unit": "%"}, {"measurement": "incidence of new-onset AKI", "setting": "[3]; AUC0–24 ≥400 mg·h/L, 30/77, all three groups", "result": 39.0, "unit": "%"}, {"measurement": "incidence of new-onset AKI", "setting": "[3]; AUC0–24 ≥ 600 mg·h/L, 17/35", "result": 48.6, "unit": "%"}, {"measurement": "number needed to harm (new-onset AKI)", "setting": "[3]; AUC0–24 ≥400 versus < 400 mg·h/L", "result": 4.1}, {"measurement": "percentage of patients with new-onset AKI", "setting": "[3]; CD group, fixed first dose 1000 mg, 10/35 patients", "result": 28.6, "unit": "%"}, {"measurement": "percentage of patients with new-onset AKI", "setting": "[3]; LD group, 25 mg/kg loading dose, 17/45 patients", "result": 37.8, "unit": "%"}, {"measurement": "percentage of patients still on CVVH or other RRT at ICU discharge", "setting": "[4]; CD group", "result": 21.2, "unit": "%"}, {"measurement": "percentage of patients with AKI at ICU discharge", "setting": "[4]; CD group", "result": 30.3, "unit": "%"}, {"measurement": "percentage of patients with AKI using the maximum RIFLE score during the complete ICU stay", "setting": "[4]; CD group", "result": 59.4, "unit": "%"}, {"measurement": "mean AKI duration", "setting": "[4]; CD group, fixed first dose 1000 mg", "result": 75.2, "unit": "h"}, {"measurement": "percentage of patients still on CVVH or other RRT at ICU discharge", "setting": "[4]; LD group", "result": 31.7, "unit": "%"}, {"measurement": "percentage of patients with AKI at ICU discharge", "setting": "[4]; LD group", "result": 34.1, "unit": "%"}, {"measurement": "percentage of patients with AKI using the maximum RIFLE score during the complete ICU stay", "setting": "[4]; LD group", "result": 57.5, "unit": "%"}, {"measurement": "mean AKI duration", "setting": "[4]; LD group, 25 mg/kg loading dose", "result": 37.2, "unit": "h"}]}]}
